Earlier results on five compounds are cited in patent US20040115233A1, “Composition for improving skin environment and clothes thereof” (priority 2001, published 2004).

In data set [1] the test system is microorganisms. The conditions noted are these: among components of tea tree oil.
In data set [2] the test system is patients with atopic diseases.

As to `Cc1ccc(C(C)C)cc1` [paracimene], in data set [1], the antibacterial action entry is given as “some antibacterial actions”. Turning to `CC1=CC=C(C(C)C)CC1` [α-terpinene], the antibacterial action result in data set [1] is listed as “some antibacterial actions”. `CC1=CCC(C(C)(C)O)CC1` (stereo not drawn) [α-terpineol]: in data set [1], the antibacterial action entry is recorded as “some antibacterial actions”. As to `CCCCCC=CCC=CCC=CCCCCC(=O)O` [γ-linolenic acid, 6,9,12-octadecatrienic acid], the alleviating itching result in data set [2] (patients with mild to medium atopic diseases (127 children and 240 adults)) is reported as “effective for alleviating itching”. Moreover, in data set [2] (serious cases), the “serious cases in which the disease was improved” value was 116 of 179. Turning to `CC1=CCC(C(C)C)=CC1` [γ-terpinene], the antibacterial action result in data set [1] is given as “some antibacterial actions”.
